Where “and” joins values, the source holds several entries; their conditions need not be identical. Equal entries are not always repeated.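 Five concentrations, 48 hours, 96-well plates. Here, GI50 denotes the concentration required for 50% inhibition of growth. At the TGI there is no net growth.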
Tests used:
Assay in all cases: NCI tumour cell line growth inhibition, 48 h
[1] = system: KM12 colon
[2] = system: SN12C renal
[3] = system: SK-MEL-2 melanoma
[4] = system: MOLT-4 leukemia
[5] = system: CAKI-1 renal
[6] = system: A549 NSCLC
[7] = system: BT-549 breast
[8] = system: HOP-62 NSCLC
[9] = system: SK-MEL-5 melanoma
[10] = system: SNB-75 CNS

Oc1ccc(-c2cn3cc(Cl)sc3n2)cc1
GI50 [1]: 20.9 µM
TGI [1]: 74.1 µM
GI50 [2]: 0.248 µM
TGI [2]: 94.8 µM
GI50 [3]: > 100 µM
TGI [3]: > 100 µM
GI50 [4]: 16.5 µM
TGI [4]: 34.3 µM
GI50 [5]: 41.5 µM
TGI [5]: > 100 µM
GI50 [6]: 30.8 µM
TGI [6]: > 100 µM
GI50 [7]: 32.1 µM
TGI [7]: > 100 µM
GI50 [8]: > 100 µM
TGI [8]: > 100 µM
GI50 [9]: 29.8 µM
TGI [9]: 78.1 µM

CN(C)C1=NC2=S(SC(Nc3ccccc3)=N2)S1 (stereo not drawn)
TGI [1]: > 100 µM
TGI [2]: > 100 µM
TGI [3]: > 100 µM
TGI [4]: > 100 µM
TGI [5]: 60.7 µM
TGI [6]: 47.2 µM
TGI [10]: 60.6 µM
TGI [8]: 67.7 µM
TGI [9]: 28.8 µM

NC1=CC(=O)c2nc3ccccc3c3ccnc1c23
GI50 [1]: 3.05 µM
TGI [1]: > 65.9 µM
GI50 [2]: 5.59 µM
TGI [2]: > 74.1 µM
GI50 [3]: 9.45 µM
TGI [3]: 32.1 µM
GI50 [4]: 3.21 µM
TGI [4]: > 100 µM
GI50 [5]: 4.98 µM
TGI [5]: > 95.6 µM
GI50 [6]: 0.132 µM
TGI [6]: > 21.6 µM
GI50 [7]: 6.9 µM
TGI [7]: 27.9 µM
GI50 [10]: 0.552 µM
TGI [10]: 23.5 µM
GI50 [8]: 4.47 µM
TGI [8]: > 45.1 µM

Cc1c(C(=O)/C=C/c2c(Cl)cccc2Cl)c(=O)n(-c2ccccc2)n1C
TGI [1]: 44.8 µM
TGI [2]: > 100 µM
TGI [3]: 75 µM
TGI [4]: > 100 µM
TGI [5]: > 100 µM
TGI [6]: 74.9 µM

N#C/C(=C1C=C/C(=N\O)C(Cl)=C\1)c1ccccc1
GI50 [1]: 0.772 µM
TGI [1]: 10.4 µM
GI50 [2]: 3.19 µM
TGI [2]: 13 µM
GI50 [4]: 2.91 µM
TGI [4]: 9.02 µM
GI50 [5]: 1.68 µM
TGI [5]: 21.3 µM
GI50 [6]: 3.27 µM
TGI [6]: > 100 µM
GI50 [7]: 4.36 µM
TGI [7]: 16.2 µM
GI50 [10]: 3.5 µM
TGI [10]: 20.5 µM
GI50 [8]: 1.91 µM
TGI [8]: 13 µM
GI50 [9]: 3.05 µM
TGI [9]: 10.3 µM

O=C(O)c1cccc2cccc(C(=O)O)c12.[Hg]
GI50 [1]: 18.3 µM
TGI [1]: 32.4 µM
GI50 [2]: 14.6 µM
TGI [2]: 27.7 µM
GI50 [3]: 17.4 µM
TGI [3]: 31.6 µM
GI50 [4]: 19.6 µM
TGI [4]: 42.7 µM
GI50 [5]: 21.7 µM
TGI [5]: 53.8 µM
GI50 [6]: 20.4 µM
TGI [6]: 42.3 µM
GI50 [10]: 18.9 µM
TGI [10]: 36.9 µM
GI50 [8]: 20.8 µM
TGI [8]: 35.3 µM
GI50 [9]: 14 µM
TGI [9]: 27 µM

COC1OC(COS(=O)(=O)c2ccc(C)cc2)C(O)C(OS(=O)(=O)c2ccc(C)cc2)C1OS(=O)(=O)c1ccc(C)cc1 (stereo not drawn)
TGI [1]: > 100 µM
TGI [2]: > 100 µM
TGI [3]: > 100 µM
TGI [4]: > 100 µM
TGI [5]: > 100 µM
TGI [6]: > 100 µM
TGI [10]: > 100 µM
TGI [8]: > 100 µM
TGI [9]: > 100 µM

CCOC(=O)NC(=O)c1cn(CCCOC(=O)NCCCCCCNC(=O)OCCCn2cc(C(=O)NC(=O)OCC)c(=O)[nH]c2=O)c(=O)[nH]c1=O
TGI [2]: > 100 µM
TGI [4]: 90.3 µM
TGI [5]: 35 µM
TGI [6]: > 100 µM
TGI [10]: 45.2 µM
TGI [8]: > 100 µM
TGI [9]: > 100 µM

CCCCCCCCCCCCCCCCCC(=O)OCC(COC1OC(CS(=O)(=O)O)C(O)C(O)C1O)OC(=O)CCCCCCCCCCCCCCCCC (stereo not drawn)
TGI [1]: > 100 µM
TGI [2]: > 100 µM
TGI [4]: > 100 µM
TGI [5]: > 100 µM
TGI [6]: > 100 µM
TGI [10]: > 100 µM
TGI [8]: > 100 µM
TGI [9]: > 100 µM

NC(=O)CCC(NC(=O)Cc1ccccc1)C(=O)O (stereo not drawn) (tested in a mixture with another compound)
TGI [1]: > 8130 µM
TGI [2]: > 8130 µM
TGI [3]: > 8130 µM
TGI [4]: > 8130 µM
TGI [5]: > 8130 µM
TGI [6]: > 8130 µM
TGI [10]: 1680 µM and > 8130 µM
TGI [8]: > 8130 µM
TGI [9]: > 8130 µM

CC1=NC(C(C)C)C(=O)O1 (stereo not drawn)
TGI [1]: > 100 µM
TGI [2]: > 100 µM
TGI [4]: > 100 µM
TGI [5]: > 100 µM
TGI [10]: > 100 µM
TGI [8]: > 100 µM
TGI [9]: > 100 µM

N#Cc1cc(N(CCCl)CCCl)c([N+](=O)[O-])cc1[N+](=O)[O-]
TGI [1]: > 100 µM
TGI [2]: > 100 µM
TGI [3]: > 100 µM
TGI [4]: > 100 µM
TGI [5]: 69.8 µM
TGI [6]: > 100 µM
TGI [7]: > 100 µM
TGI [8]: > 100 µM
TGI [9]: > 100 µM

CC(=O)OC1CC2C(C)(C)C(=O)C=C[C@]2(C)C2CCC3(C)C(c4ccoc4)[C@@H](O)[C@H]4O[C@]43[C@]12C (stereo partly drawn)
TGI [1]: 35.1 µM
TGI [2]: 34.1 µM
TGI [3]: 39.6 µM
TGI [4]: 88.8 µM
TGI [5]: 45.6 µM
TGI [6]: 85.7 µM
TGI [10]: 57.3 µM
TGI [8]: 42.6 µM
TGI [9]: 34.2 µM

COc1cc(Nc2nc3cc(C(F)(F)F)ccc3nc2-c2ccccc2)cc(OC)c1OC
TGI [1]: > 100 µM
TGI [2]: > 100 µM
TGI [3]: > 100 µM
TGI [4]: > 100 µM
TGI [5]: 0.0575 µM
TGI [6]: > 100 µM
TGI [10]: > 100 µM
TGI [8]: 94.6 µM
TGI [9]: > 100 µM

CC1=CC(=O)c2c(C=O)c(O)c(O)c(C(C)C)c2C1=O
TGI [2]: > 100 µM
TGI [3]: 57.5 µM
TGI [4]: 66.3 µM
TGI [5]: 52.9 µM
TGI [10]: > 100 µM
TGI [8]: > 100 µM
TGI [9]: 65 µM

COC(=O)C1=C(CS(=O)c2ccc([N+](=O)[O-])cc2[N+](=O)[O-])ON(C)C1c1ccccc1 (stereo not drawn)
TGI [1]: > 100 µM
TGI [2]: > 63.3 µM
TGI [3]: > 100 µM
TGI [4]: 48.5 µM
TGI [5]: > 60.8 µM
TGI [6]: > 100 µM
TGI [10]: 77.6 µM
TGI [8]: > 100 µM
TGI [9]: > 100 µM

Cc1ccc(-c2nc(N)c(C#N)c3c2CCOc2c-3ccc3ccccc23)cc1
GI50 [1]: 0.203 µM
TGI [1]: 48.6 µM
GI50 [2]: 12.3 µM
TGI [2]: 53.9 µM
GI50 [4]: 0.42 µM
TGI [4]: > 100 µM
GI50 [5]: 0.171 µM
TGI [5]: 16.9 µM
GI50 [6]: 1.2 µM
TGI [6]: 22.9 µM
GI50 [7]: 3.85 µM
TGI [7]: 54 µM
GI50 [10]: 5.02 µM
TGI [10]: > 100 µM
GI50 [8]: 0.313 µM
TGI [8]: 7.93 µM
GI50 [9]: 0.0819 µM
TGI [9]: 1.14 µM

COc1ccc(NC(=O)CC(=O)N2N=C(N(CCC#N)c3cccc(C)c3)CC2c2ccccc2)cc1 (stereo not drawn)
TGI [1]: > 100 µM
TGI [2]: > 100 µM
TGI [3]: > 100 µM
TGI [4]: > 100 µM
TGI [5]: > 100 µM
TGI [6]: > 100 µM
TGI [10]: > 100 µM
TGI [8]: > 100 µM
TGI [9]: > 100 µM

COc1ccc(-c2cc(-c3cc(C)ccc3O)[nH]c(=O)n2)cc1
TGI [1]: > 100 µM
TGI [2]: > 100 µM
TGI [4]: > 100 µM
TGI [5]: > 100 µM
TGI [6]: > 100 µM
TGI [10]: 66.8 µM
TGI [8]: 76.4 µM

CCC1CC(C)=CCN1S(=O)(=O)c1ccc(C)cc1 (stereo not drawn)
TGI [1]: 70.8 µM
TGI [2]: 24.3 µM
TGI [3]: 27.2 µM
TGI [4]: 83.6 µM
TGI [5]: > 100 µM
TGI [6]: > 100 µM
TGI [10]: 50.6 µM
TGI [8]: 84.6 µM
TGI [9]: 26.8 µM

Reference: PubChem BioAssay (NCI)
